Reference: patent US12312378B2, “Glucosamine derivatives for the prevention or treatment of joint disorders” (RISEN (SUZHOU) PHARMA TECH CO., LTD., priority 2017, dated 2025)
“Also recorded” adds a separate entry of the source. Marks after values point to notes of the source that are not given here. One block for each compound: values may come before it.

Columns and labels:
[1] = Pharmacokinetic study in SD rats: plasma GlcNBu after oral gavage of test compound; assay type: in vivo, Sprague-Dawley (SD) rats; design: key: (—): not detected; conditions: Table 5: plasma GlcNBu after oral administration of the indicated compound, 0.93 mmol/kg
Procedure: A test compound is dissolved in water at a concentration determined by the desired dose and dosing volume for the specific animal to which the compound is to be administered. A calculated volume of dosing solution is administered to the animal (PO, SQ, IP, or IV). A blood sample is collected following administration of the test compound at specific time points (such as 0 minutes (min), 5 min, 10 min, 15 min, 30 min, 1 hour (h), 1.5 h, 2 h, 3 h, 4, 6 h, etc.). The blood sample is converted to a plasma sample using standard techniques. The plasma samples are analyzed to determine the concentration of the test compound and, in some cases, GlcNBu.
According to the above general procedure, SD rats were grouped randomly into groups of six (n=6). The test compound, GlcNBu or a compound provided herein, was administered to the animals by oral gavage at a dose of 0.93 mmol/kg. For illustration purposes, GlcNBu was given at an oral dose of 232 mg/kg (0.93 mmol/kg), and compound 16 was administered at an equal molar dose (0.93 mmol/kg, i.e., 362 mg/kg). At pre-set time points, blood was taken through orbital venous plexus extraction, and the samples were analyzed using LC/MS-MS to determine the GlcNBu concentration in the plasma.
In the figure, Curves labeled with -●- and -▴- represent plasma GlcNBu concentration following oral administration of GlcNBu (232 mg/kg, or 0.93 mmol/kg) and compound 16 ([…], or 0.93 mmol/kg), respectively. […] FIG. 2A and FIG. 2B show examples of other compounds of the invention, presented in plasma GlcNBu concentration versus time curves; a summary of pharmacokinetic parameters for these compounds is given in Table 4 and Table 5.

MIA-induced OA rat model = assay: Monosodium iodoacetate-induced osteoarthritis (MIA) model in rat knee; assay type: in vivo
Procedure: Osteoarthritis was induced by intra-articular (i.a.) injection of MIA solution in the rat knee joint as follows: Briefly, rats were anesthetized with isoflurane and given a single i.a. administration of 2 mg of MIA dissolved in saline through the intrapatellar ligament of the right knee. MIA was administered in a volume of 50 μL. Basal readings were established using a group of control rats injected with 10% ethanol in water. Rats were randomized by initial body weight to groups of 6 or 7. After MIA injection, the MIA groups began treatment with either vehicle, or a test compound at a preset dose regime for a period of 28 days. Clinical observations were recorded, including body weight, joint swelling, and weight bearing, on pre-induction day (day 0), day 3, 5, 7, 14, 21 and/or 28. At the end of the study, the animals were euthanized by CO2 and sacrificed. Joint samples including the tibia and femur were sectioned in the coronal plane and stained using both H&E and Safranin-O. Knee joints were examined and scored for cartilage degeneration, the presence of osteophytes, the amount and extent of calcified cartilage and subchondral bone damage, and the amount of synovial membrane inflammation using the Osteoarthritis Research Society International (OARSI) scoring system put forth in 2010 (Kraus, V. B. et al., Osteoarthritis Cartilage, 2010, Suppl 3:S35-52).
Studies of compound 16 in the MIA model were conducted as described above.

[2] = tested on: MMT-induced model of osteoarthritis; assay: Medial meniscus transection (MMT) model in rats; assay type: in vivo, rat; conditions: for Weight bearing (right paw, %), mean: G2, gavage 4 times every day
Excerpt: In the rat MMT model, the unilateral knee (right knee) was cleaned and prepped for surgery. An incision was made over the medial aspect of the femoro-tibial joint. The medial collateral ligament was exposed via blunt dissection and transected to reflect the meniscus toward the femur. A full thickness cut was made through the meniscus at its narrowest point. The joint space was returned to normal, and the skin was closed and the animal allowed to recover. For the present study, at second day post MMT induction animals, G1 and G2 animals were treatment with vehicle and test compound 16 respectively. Animals were dosed 4 times every day, and were dosed by gavage for 4 weeks.

[3] = humans, cited from earlier work
[4] = rats; cited from earlier work
[5] = rats; data from i.v., i.p., and p.o. studies; cited from earlier work
[6] = tested on: destructive arthritis rat model; conditions: cited from earlier work
OVX rat = conditions: GlcNBu feeding in the OVX rat; cited from earlier work
[7] = G2, histopathology after 4 weeks of dosing

AUC0-t [1]: 662 ng·h/mL | AUC0-∞ [1]: 889 ng·h/mL | CLz/F [1]: 367 mL/min/kg | Cmax [1]: 426 ng/mL | Tmax [1]: 0 h | t1/2z [1]: 1 h
SMILES: CCCC(=O)N[C@@H]1C(OC(=O)CCC)O[C@H](COC(=O)CCC)[C@@H](OC(=O)CCC)[C@@H]1O (stereo partly drawn) [Compound 74, 2-N-1,4,6-tri-O-tetrabutyryl-D-glucosamine]

AUC0-t [1]: (—) | AUC0-∞ [1]: (—) | CLz/F [1]: (—) | Cmax [1]: (—) | Tmax [1]: (—) | Vz/F [1]: (—) | t1/2z [1]: (—)
SMILES: CCCC(=O)N[C@H]1C(OCc2ccccc2)O[C@H](CO)[C@@H](O)[C@@H]1O (stereo partly drawn) [Compound 75, 1-O-benzyl-2-N-butyryl-D-glucosamine]

AUC0-t [1]: (—) | AUC0-∞ [1]: (—) | CLz/F [1]: (—) | Cmax [1]: (—) | Tmax [1]: (—) | Vz/F [1]: (—) | t1/2z [1]: (—)
SMILES: CCCC(=O)N[C@H]1C(O)O[C@H](COC(=O)NCCCC(=O)O)[C@@H](O)[C@@H]1O (stereo partly drawn) [Compound 94, 2-N-butyryl-6-O-((3-carboxy-1-propyl)aminocarbonyl)-D-glucosamine]

AUC0-t [1]: (—) | AUC0-∞ [1]: (—) | CLz/F [1]: (—) | Cmax [1]: (—) | Tmax [1]: (—) | Vz/F [1]: (—) | t1/2z [1]: (—)
SMILES: CCCC(=O)N[C@H]1C(OCc2ccccc2)O[C@H](CO)[C@@H](O)[C@@H]1OCc1ccccc1 (stereo partly drawn) [Compound 76, 2-N-butyryl-1,3-di-O-benzyl-D-glucosamine]

The next lines start with the compound.

SMILES: CCCC(=O)N[C@H]1C(O)O[C@H](COC(=O)CCC)[C@@H](OC(=O)CCC)[C@@H]1O (stereo partly drawn) [Compound 16, 2-N-4,6-O-tributyryl-D-glucosamine]
Weight bearing, mean (MIA-induced OA rat model; MIA rats, Group 2, 234 mg/kg, Day 3): 32.07% | Weight bearing, mean (MIA-induced OA rat model; MIA rats, Group 2, 234 mg/kg, Day 5): 35.76** % | Weight bearing, mean (MIA-induced OA rat model; MIA rats, Group 2, 234 mg/kg, Day 7): 37.72% | Weight bearing, mean (MIA-induced OA rat model; MIA rats, Group 2, 234 mg/kg, Day 14): 40.86% | Weight bearing, mean (MIA-induced OA rat model; MIA rats, Group 2, 234 mg/kg, Day 21): 44.12% | Weight bearing, mean (MIA-induced OA rat model; MIA rats, Group 2, 234 mg/kg, Day 28): 45.90% | Weight bearing, mean (MIA-induced OA rat model; MIA rats, Group 2, 234 mg/kg, Pre-Injection (Day 0) baseline): 50.49% | Weight bearing, mean (MIA-induced OA rat model; MIA rats, Group 3, 468 mg/kg, Day 3): 34.56% | Weight bearing, mean (MIA-induced OA rat model; MIA rats, Group 3, 468 mg/kg, Day 5): 37.40** % | Weight bearing, mean (MIA-induced OA rat model; MIA rats, Group 3, 468 mg/kg, Day 7): 39.23% | Weight bearing, mean (MIA-induced OA rat model; MIA rats, Group 3, 468 mg/kg, Day 14): 41.68* % | Weight bearing, mean (MIA-induced OA rat model; MIA rats, Group 3, 468 mg/kg, Day 21): 44.25% | Weight bearing, mean (MIA-induced OA rat model; MIA rats, Group 3, 468 mg/kg, Day 28): 44.98% | Weight bearing, mean (MIA-induced OA rat model; MIA rats, Group 3, 468 mg/kg, Pre-Injection (Day 0) baseline): 50.25% | weight bearing on the back-right leg versus vehicle (MIA-induced OA rat model; MIA rats, day 5, all compound-treated groups (234 and 468 mg/kg)): significant increases | weight bearing versus vehicle (MIA-induced OA rat model; MIA rats, high dose (G3, 468 mg/kg), day 14): significant increases | osteophytes versus vehicle group (MIA-induced OA rat model; MIA rats, high dose group (468 mg/kg), histology): significantly decreased | all other mean values for each histological parameter (MIA-induced OA rat model; MIA rats, high dose treated group (468 mg/kg)): clear trend of lowering | articular cartilage degeneration (MIA-induced OA rat model; MIA-induced OA rat model): slowed | degeneration changes of chondrocyte clustering, G2 compared with G1 [2]: significantly lower; also recorded: significantly less | values in all histology parameters, G2 versus G1 [2]: lower | weight bearing on the right paw, G2 compared with G1 ([2]; Day 3 and Days 14-28): significantly increased; also recorded: significantly more | Weight bearing (right paw, %), mean ([2]; Day 3): 36.68* % | Weight bearing (right paw, %), mean ([2]; Day 5): 39.76% | Weight bearing (right paw, %), mean ([2]; Day 7): 40.68% | Weight bearing (right paw, %), mean ([2]; Day 14): 42.71* % | Weight bearing (right paw, %), mean ([2]; Day 21): 43.73** % | Weight bearing (right paw, %), mean ([2]; Day 28): 44.06** % | Weight bearing (right paw, %), mean ([2]; Pre-injection baseline): 49.55% | Chondrocyte clustering (0-4), mean [2, 7]: 1.17* | Degenerative changes in cartilage (0-4), mean [2, 7]: 1.17 | Inflammatory response in subchondral bone region (0-4), mean [2, 7]: 0.00 | Nature of predominant tissue (0-4), mean [2, 7]: 1.00 | Neo-vascularization (0-4), mean [2, 7]: 0.00 | Osteophytes (0-4), mean [2, 7]: 1.17 | Structural integrity (0-4), mean [2, 7]: 1.17 | Surface regularity (0-4), mean [2, 7]: 1.67 | Total scoring, mean [2, 7]: 7.33

SMILES: CCCC(=O)N[C@H]1C(O)O[C@H](COC(=O)CCC(=O)O)[C@@H](OC(=O)CCC(=O)O)[C@@H]1O (stereo partly drawn) [Compound 79, 2-N-butyryl-4,6-di-O-(4-hydroxy-4-oxo-butyryl)-D-glucosamine]
AUC0-t [1]: (—) | AUC0-∞ [1]: (—) | CLz/F [1]: (—) | Cmax [1]: (—) | Tmax [1]: (—) | Vz/F [1]: (—) | t1/2z [1]: (—)

SMILES: CC(=O)N[C@H]1C(O)O[C@H](CO)[C@@H](O)[C@@H]1O (stereo partly drawn) [N-acetylglucosamine]
half-life compared with glucosamine ([3]; polyvalent or monovalent form): longer

SMILES: N[C@H]1C(O)O[C@H](CO)[C@@H](O)[C@@H]1O (stereo partly drawn) [Glucosamine, glucosamine]
oral bioavailability (F) [4]: 0.19-0.21 | serum levels ([3]; very large doses, after oral or IV administration): cannot be detected

SMILES: CCCC(=O)N[C@H]1C(O)O[C@H](CO)[C@@H](O)[C@@H]1O (stereo partly drawn) [GlcNBu, N-butyryl glucosamine]
half-life [5]: about 20 min | subchondral bone structure [6]: preserved strikingly | bone mineral and some biomechanical properties (OVX rat): preserves

SMILES: CCCC(=O)N[C@H]1C(O)O[C@H](CO)[C@@H](O[C@@H]2O[C@H](CO)[C@@H](O)[C@H](O)[C@H]2O)[C@@H]1O (stereo partly drawn) [Compound 89, 2-N-butyryl-4-O-(D-glucopyranosyl)-D-glucosamine]
AUC0-t [1]: 1757 ng·h/mL | AUC0-∞ [1]: 1942 ng·h/mL | CLz/F [1]: 167 mL/min/kg | Cmax [1]: 1110 ng/mL | Tmax [1]: 2 h | t1/2z [1]: 1 h
